# Reference: the supplement of paper PMC5412046
# Counter-ions that a name gives are not always drawn.
# System: SB.msgc-1
# Experiment: AC50 for growth inhibition (viability) (log10 M); higher = less potent
# Details: SB.msgc-1 (sporadic gastric cancer)
# Outline: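 Values are log half-maximal activity concentrations from four-parameter fits of DMSO-normalised viability, restricted to high-quality curve classes. Patient-derived gastric cancer cells, hereditary or sporadic, were plated at 500 cells per 1536 well in 5 μL medium and given 23 nL compound in DMSO by pintool across 11 threefold dilutions, the top final concentration being 46 μM. Viability was read by ViewLux luminescence after 48 h and a 30 min CellTiter-Glo step at room temperature.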
row,Structure (SMILES),AC50 for growth inhibition (log10 M)
1,O=C1NC(=O)/C(=C/c2ccc3nccc(-c4ccncc4)c3c2)S1 [GSK-615],-6.03
2,CCOC(=O)\C1=C\[C@]2(CC)CCCN3CCC4=C([C@H]23)[N]1C5=C4C=CC=C5 [Vinpocetine],-4.63
3,Nc1nc(Cl)nc2c1ncn2[C@H]1C[C@H](O)[C@@H](CO)O1 [Cladribine],-5.83
4,Cc1nc(Nc2n[nH]c3c2CN(C(=O)N[C@H](CN(C)C)c2ccccc2)C3(C)C)c2sccc2n1,-6.53
5,CN(C)c1ccc(O)c2c1C[C@H]1C[C@H]3[C@H](N(C)C)C(O)=C(C(N)=O)C(=O)[C@@]3(O)C(O)=C1C2=O [Minocycline],-5.38
6,CC[C@@H]1C(=O)N(C)c2cnc(Nc3ccc(C(=O)NC4CCC(N5CCN(CC6CC6)CC5)CC4)cc3OC)nc2N1C(C)C (stereo partly drawn) [Volasertib],-7.03
7,OC[C@H]1O[C@H](C[C@@H]1O)N2/C=C(C(=O)NC2=O)/C(F)(F)F [Trifluridine],-5.78
8,CC(C)C1=C(O)C=C(O)C(=C1)C/2=N/NC(=O)N2C3=CC4=C(C=C3)[N](C)C=C4 [Ganetespib],-6.93
9,CC1(C)S[C@H]2[C@H](NC(=O)[C@@H](N)C3=CC=C(O)C=C3)C(=O)[N@]2[C@H]1C(O)=O [Amoxicillin sodium],-5.08
10,COc1cccc2c(NCc3ccccc3)nc(-n3c(N)nc4ccccc43)nc12,-5.08
11,CC(C)C[C@@H](C=O)NC(=O)[C@H](CC(C)C)NC(=O)[C@H](CC(C)C)NC(=O)OCc1ccccc1 [MG-132],-6.08
12,CC[C@@]1(O)C(=O)OC\C2=C1\C=C\3N(CC4=C3N=C5C=CC=CC5=C4)C2=O [Camptothecin],-7.43
13,Cc1c(NC(=O)OC[C@@H]2COCCN2)cn2ncnc(Nc3ccc4c(cnn4Cc4cccc(F)c4)c3)c12 [AC-480],-6.68
14,COc1cc2nccc(Oc3ccc(NC(=O)C4(C(=O)Nc5ccc(F)cc5)CC4)cc3)c2cc1OC [Cabozantinib],-5.48
15,O=C(OC)[C@]12CC[C@@]3(C)[C@]4(C)CC[C@H]5[C@@](C)(C)C(=O)C(=C[C@]5(C)C4=CC(=O)[C@@H]3[C@@H]2C[C@](C)(C)CC1)C#N [Bardoxolone methyl],-6.33
16,COc1cc2nc(N3CCCN(C)CC3)nc(NC3CCN(Cc4ccccc4)CC3)c2cc1OC,-4.88
17,NC\1=N\C(=O)N(\C=C1F)[C@H]2C[C@H](O)[C@@H](CO)O2,-6.53
18,ClC1=CC=C(C=C1)C(C#N)C2=C(Cl)C=C(C=C2Cl)N3\N=C/C(=O)NC3=O (stereo not drawn) [Diclazuril],-4.73
19,CNC(=O)c1ccc(Nc2cc(Nc3ccccc3[S+](=O)([O-])C(C)C)c3cc[nH]c3n2)nc1,-4.68
20,C[C@H]1C[C@@H]2[C@H](CC[C@@]3(C)[C@H]2CC[C@]3(OC(C)=O)C(C)=O)[C@@]\4(C)CCC(=O)\C=C14 [Medroxyprogesterone acetate],-4.83
21,COc1cc2ncnc(-n3nc(-c4ccccn4)nc3N)c2cc1OC,-4.78
22,CCOC(=O)N1CCN(/[N+]([O-])=N/Oc2ccc([N+](=O)[O-])cc2C#N)CC1 [JS-59-4],-5.13
23,CC\1=C(C(\N=C(/N1)C2=CC(=NC=C2)Cl)C3=C(F)C=C(Cl)C=C3)/C(=O)NC4=C(F)C=C5[NH]N=CC5=C4 (stereo not drawn) [GSK-25],-4.63
24,NC(=O)N1CCC(CC(=O)N2CCC([C@H]3c4ncc(Br)cc4CCc4cc(Cl)cc(Br)c43)CC2)CC1 [Lonafarnib],-4.78
25,N#Cc1c(NC(=O)c2cccc3ccccc23)sc2c1CCCC2 [TCS JNK 5a],-5.98
26,CC(C)NC[C@@H](C(=O)N1CCN(c2ncnc3c2[C@H](C)C[C@H]3O)CC1)c1ccc(Cl)cc1 [GDC-0068],-5.13
27,COC1=CC=CC2=C1C(=NC(=N2)C3=CC=CS3)NN4C(=O)\C=C(C)/C4=O,-4.88

row,Structure (SMILES),AC50 for growth inhibition (log10 M)
1,COc1cc(C(C)C)c(Oc2cnc(NC(CO)CO)nc2N)cc1I [Ro 51],-6.18
2,Cc1ccc(C(=O)Nc2cccc(C(F)(F)F)c2)cc1-c1ccc2nc(NCCN3CCOCC3)ncc2c1 [AMG-47a],-5.03
3,CCN(CC)CCCCNc1ncc2c(n1)N(C)C(=O)N(c1c(Cl)c(OC)cc(OC)c1Cl)C2,-4.63
4,CCOC(=O)N1c2ccc(C(F)(F)F)cc2[C@@H](N(Cc2cc(C(F)(F)F)cc(C(F)(F)F)c2)C(=O)OC)C[C@H]1CC [Torcetrapib],-5.18
5,CC(NCc1ccc2c(c1)[nH]/c(=N\C(=O)c1ccc(-c3cn[nH]c3)s1)n2CC(C)(C)O)C(C)(C)C (stereo not drawn),-6.18
6,OC[C@H]1O[C@H]([C@@H](F)[C@@H]1O)N2\C=C/C(=O)NC2=O,-5.13
7,COc1cc2c(NC3CCN(C(C)C)CC3)nc(C3CCCCC3)nc2cc1OCCCN1CCCC1 [UNC-0638],-4.78
8,CCCCOc1c(C(=O)c2c(F)cc(C)cc2F)cnc2[nH]ncc12,-5.63
9,CCN1CCC(n2cc(CNc3cc(Cl)c4ncc(C#N)c(Nc5ccc(F)c(Cl)c5)c4c3)nn2)CC1 [Wyeth Cot inhibitor-2],-4.73
10,CCC[C@H](NC(=O)/C(C#N)=C/c1cccc(Br)n1)c1ccccc1 [Degrasyn],-5.43
11,O=C(NC1CCNCC1)c1n[nH]cc1NC(=O)c1c(Cl)cccc1Cl [AT-7519],-6.68
12,CCc1cnn2c(NCc3ccc[n+]([O-])c3)cc(N3CCCC[C@H]3CCO)nc12 [Dinaciclib],-7.88
13,CN(C)c1ccc2nc3ccc(N(C)C)cc3[s+]c2c1 [Methylene blue],-5.33
14,O=C1c2c(O)ccc(O)c2C(=O)c2c(NCCNCCO)ccc(NCCNCCO)c21 [Mitoxantrone],-5.88
15,S=P(N1CC1)(N1CC1)N1CC1 [ThioTEPA],-5.23
16,C[C@](O)(CS(=O)(=O)c1ccc(F)cc1)C(=O)Nc1ccc(C#N)c(C(F)(F)F)c1 [(R)-Bicalutamide],-6.03
17,C[C@@H](Oc1cc(-c2cnn(C3CCNCC3)c2)cnc1N)c1c(Cl)ccc(F)c1Cl [Crizotinib],-4.63
18,CC1(C)OC/2=C(\[C@H](NCC3=CC=CC=C3)[C@@H]1O)C(=O)C4=CC=CC=C4C2=O,-5.58
19,CCOc1cc2ncc(C#N)c(Nc3ccc(F)c(Cl)c3)c2cc1NC(=O)/C=C/CN(C)C [Pelitinib],-7.43
20,COC(=O)/C=C/C(=O)OC [Dimethyl fumarate],-5.48
21,Cc1cccc2c1CC[C@H](CN1CCC(c3c(Cl)cccc3Cl)CC1)C[C@@H]2O,-4.78
22,CN1C(=O)C(=C/2N(C(=O)N(C3CC3)C(=O)C2=C1/NC4=CC=C(I)C=C4F)C5=CC=CC(=C5)NC(C)=O)\C [Trametinib],-6.63
23,CC[S+](=O)([O-])N1CC(CC#N)(n2cc(-c3ncnc4[nH]ccc34)cn2)C1 [Baricitinib],-4.63
24,Cc1cccc(-c2[nH]c(C(C)(C)C)nc2-c2ccc3nccnc3c2)n1,-5.73
25,CCOc1cc2c(c(F)c1OCC)C(=N)N(CC(=O)c1cc(N3CCOCC3)c(OC)c(C(C)(C)C)c1)C2 [E5555],-4.68
26,COc1ccc(-c2cc3nccn3c(Nc3ncccc3C(N)=O)n2)cc1OC [BAY61-3606],-4.98
